Assay results as given in patent US20250339399A1, “SUPRAMOLECULAR SELF-ASSEMBLY SYSTEM” (Beijing Creatron Institute of Pharmaceutical Research Co., …, priority 2022, published 2025).
Where two headings read alike, the source gives them in different places.

Tests used:
[1] = cited from earlier work
[2] = Guest molecule concentration after incubation in initial medium without polymer (Comparative Example 1); format: physicochemical; conditions: for Concentration of guest molecule measured after different incubated time: 37° C., pH 4.5 acetate buffer
Method: (§1) pH 2.0 hydrochloric acid, pH 4.5 acetate, and pH 6.5, pH 6.8, or pH 7.4 phosphate buffer solutions were prepared. The selection of each initial medium followed the principle that the solubility in the initial medium of the selected targets (or active ingredients) should low enough, but should meet the detection sensitivity and accuracy requirements of the corresponding analytical methods. Each buffer as initial media was placed in a 50 ml test tube with a stopper, shaken in a constant temperature air shaker at 37° C.±0.5° C., with an amplitude of 200 rpm, and incubated for 1 hour. […] Samples were taken at 0.5 h, 3 h and 6 h after incubation, centrifuged at 37° C., 13000 rpm for 5 minutes, and the supernatant was diluted at least 10 times with the mobile phase under the target analyte analytical method, filtered, the initial filtrate was discarded, and the continued filtrate was used as the test solution for injection analysis. The corresponding HPLC method under each target object item in Table 8 was used to determine the content of each target substance. When the solubility of the target in the initial medium is below the quantitative limit of the analytical method, a small amount of surfactant, such as sodium dodecyl sulfate (SDS), Tween20, or Tween80, can be added appropriately.
The above targets were incubated at 37° C.±0.5° C. for different time in an initial medium without any polymer. Each solid target formed by molecular stacking was removed by centrifugation, and the supernatant was analyzed using the HPLC method under each target item (see Table 8). The theoretical addition concentration of each target when its supramolecular self-assembly system was built was determined by its maximum dose in clinical use.

[3] = Binary supramolecular self-assembly systems of polymer and target: guest concentration over incubation time (Comparative Example 2); format: physicochemical; conditions: binary: 0.5% 103E3; 6 h
Method: Experiments were conducted according to the steps in Comparative Example 1, and quantitative analysis was carried out using the analytical method for each target to investigate the regulation ability […] stacking.

[4] = Binary (carrier), ternary and quaternary supramolecular self-assembly systems of polymer, carrier building block and target: guest concentration over incubation time (Examples 1-56); format: physicochemical
Method: as §1
Experiments were conducted according to the steps in Comparative Example 1, and quantitative analysis was carried out using the analytical method for each target to investigate the regulation ability of each binary supramolecular self-assembly system built from 0.5% polymer and target on guest molecules stacking.
Ternary supramolecular self-assembly systems based on different polymers, carrier building blocks, and targets were built according to the experimental scheme in Table 12, to investigate the influence of synergistic regulation of the carrier building blocks and the polymers on the stacking of target molecules, as well as the stability of the supramolecular self-assembly systems jointly built by them over incubation time. The initial medium, quantitative analysis method, pre-treatment method, and initial theoretical concentration of the target, corresponding to each target molecule in the experiment, were consistent with those in Comparative Examples 1 and 2. After a target was added to the system, the target was uniformly dispersed by ultrasonication at 37° C. for half an hour and then shaken in a 37° C. constant temperature air shaker, and samples were collected after different incubation time, i.e. 0.5 h, 1 h, 2 h, 3 h, 4 h, and 6 h.

[5] = Cannabidiol derivatives, Table 30 (chemical structures)

SMILES: C=C(C)[C@@H]1CCC(C)=C[C@H]1c1c(OC(=O)CO[Si](C)(C)C(C)(C)C)cc(CCCCC)cc1OC(=O)CO[Si](C)(C)C(C)(C)C [compound 54]
- Log P [1, 5]: Log P = 9.55 H-D:0,H-R = 4

SMILES: CCCCCc1cc(O)c2c(c1)OC(C)(C)[C@@H]1CCC(C)=C[C@@H]21 [compound 66, Tetrahydrocannabinol]
- Log P [1, 5]: Log P = 5.73 H-D:1,H-R = 2

SMILES: O=C1C[C@@H]2[C@@H](CC[C@@H](O)CCc3ccccc3)[C@H](O)C[C@@H]2O1 [Latanoprost lactone diol, latanoprost lactone diol]
- Log P ([1]; prost derivatives, Table 31 (relevant information)): Log P: 1.87 D-H: 2 R-H: 3

SMILES: COC(=O)[C@H](c1ccccc1Cl)N1CCc2sccc2C1 [Clopidogrel bisulfate]
- Concentration of guest molecule measured after different incubated time ([2]; 0.5 h): 48.9 µg/mL
- Concentration of guest molecule measured after different incubated time ([2]; 3 h): 39.6 µg/mL
- Concentration of guest molecule measured after different incubated time ([2]; 6 h): 52.0 µg/mL
- Concentration of guest molecule in solution ([2]; initial medium, 6 h): 51.97 µg/mL
- Concentration of guest molecule in solution [3]: 64.37 µg/mL
- Times that of the initial medium ([4]; quaternary: 0.25% 204 (102M+103E3) + 0.25% 302, 310, 314 or 318, range over the systems, 6 h): 13-17 times

SMILES: CC(=O)CC(c1ccccc1)c1c(O)c2ccccc2oc1=O (stereo not drawn) [Warfarin]
- Encapsulation rate for the guest molecule ([4]; quaternary: 0.25% 207 (101+103E5) + 0.1% 320): ~100%

SMILES: CCCCCCC(C)(C)c1cc(OC)c(C2C=C(CO)[C@@H]3C[C@H]2C3(C)C)c(OC)c1 (stereo partly drawn) [compound 31]
- Log P [1, 5]: Log P = 6.39 H-D:1,H-R = 3

SMILES: CCCCCc1cc(O)c(C/C=C(\C)CCC=C(C)C)c(O)c1 [compound 64, (2-[(2E)-3,7-dimethylocta-2,6-dienyl]-5-pentylbenzene-1,3-diol)]
- Log P [1]: Log P = 7.05 H-D:2,H-R = 2
